According to patent US20260191968A1, “PROTAC DEGRADERS OF MLLT1 AND/OR MLLT3” (DARK BLUE THERAPEUTICS LTD, priority 2024, published 2026):
pIC50: −log10 of the molar value.

Legend:
MLLT1 = biological target: T1, MLLT1 (Homo sapiens, UniProt Q03111); experiment: MLLT1 degradation assay in MV4-11 cells (JESS chemiluminescent detection), three concentrations, 24 h; assay type: cell-based; conditions: with respect to DMSO control
T1 construct: host or cells: MV4-11
T1 sequence (Q03111 1-559): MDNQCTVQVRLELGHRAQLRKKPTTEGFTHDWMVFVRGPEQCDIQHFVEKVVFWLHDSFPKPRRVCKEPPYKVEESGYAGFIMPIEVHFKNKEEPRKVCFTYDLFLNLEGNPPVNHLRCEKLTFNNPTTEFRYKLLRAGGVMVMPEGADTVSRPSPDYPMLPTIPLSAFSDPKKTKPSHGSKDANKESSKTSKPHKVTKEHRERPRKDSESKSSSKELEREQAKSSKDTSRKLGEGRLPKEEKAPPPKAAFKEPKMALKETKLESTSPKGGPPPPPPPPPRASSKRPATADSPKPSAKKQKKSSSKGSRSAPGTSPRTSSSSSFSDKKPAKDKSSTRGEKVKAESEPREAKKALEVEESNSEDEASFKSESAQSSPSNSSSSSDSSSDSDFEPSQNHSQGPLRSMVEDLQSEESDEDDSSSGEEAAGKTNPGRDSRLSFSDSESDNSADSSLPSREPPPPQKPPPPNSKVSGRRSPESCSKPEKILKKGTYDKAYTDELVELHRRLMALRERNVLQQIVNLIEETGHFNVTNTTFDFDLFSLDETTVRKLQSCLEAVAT
Procedure, shortened: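 MV4-11 cells treated 24 h at 37° C, 5% CO2 with 1000, 100 and 10 nM compound (0.1% DMSO final). MLLT1 quantified by automated capillary chemiluminescent immunodetection; band peak area expressed as % degradation relative to DMSO control.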

MV4-11 cells = experiment: MV4-11 cellular proliferative assay, Assay Format B (CTG 2.0, 168 h); assay type: cell-based; conditions: Homo sapiens, 168 h (7 days), CTG 2.0, read-out: IC50 (MV4-11 cellular proliferative assay, Assay format B)
Procedure: MV4-11 cells at a confluency of ~50-80% was used for cell growth assay. 600 cells/well in a 384-well opaque cell culture plate (6007680; Perkin Elmer) were seeded in 40 μL of complete medium (IMDM+10% FBS+1X Penicillin-Streptomycin). Cells were incubated overnight at 37° C., 5% CO2. 10 mM DMSO stocks were prepared, cells were treated with 10 concentrations of test compounds starting from 1 uM or 100 nM, 3-fold dilution in 10 uL (5×concentration) of complete medium. Final DMSO concentration was 0.3%. Culture plates were centrifuged at 40×g, 30s. Cells were incubated with compounds for 168 h (7 days). After 7 days, 20 uL CTG 2.0 reagent (G9242; Promega) was added per well and luminescence reading was taken in Envision Xcite 2105 multimode plate reader. Data was analyzed in GraphPad Prism 10.0 and data was shown as % viability with respect to DMSO control and dose-response curves were generated using four parameter logistic regression. Assay quality was determined by z-factor calculation using positive and negative controls.

SMILES	MLLT1% Degradation @ 0.01 μM (MLLT1)	MLLT1% Degradation @ 0.1 μM (MLLT1)	MLLT1% Degradation @ 1 μM (MLLT1)	pIC50 (MV4-11 cells)
CN1CCC[C@@H]1c1cc2cnc(NC(=O)c3ccc(N4CCN(C(=O)CC5CCN(c6cccc7c6CN(C6CCC(=O)NC6=O)C7=O)CC5)CC4)nc3)cc2[nH]1 (stereo partly drawn) [Example 108, 6-(4-(2-(1-(2-(2,6-dioxopiperidin-3-yl)-1-oxoisoindolin-4-yl)piperidin-4-yl)acetyl)piperazin-1-yl)-N-(2-((R)-1-methylpyrrolidin-2-yl)-1H-pyrrolo[3,2-c]pyridin-6-yl)nicotinamide]	A (Category A: A ≥ 75% degradation)	A (Category A: A ≥ 75% degradation)	B (Category B: 50% ≤ B < 75% degradation)	≥ 7.00
COc1cc(CCCCC#Cc2cccc3c2CN(C2CCC(=O)NC2=O)C3=O)ccc1C(=O)Nc1cc2[nH]c([C@H]3CCCN3C)cc2cn1 (stereo partly drawn) [Example 115, 4-(6-(2-(2,6-dioxopiperidin-3-yl)-1-oxoisoindolin-4-yl)hex-5-yn-1-yl)-2-methoxy-N-(2-((R)-1-methylpyrrolidin-2-yl)-1H-pyrrolo[3,2-c]pyridin-6-yl)benzamide]	A (Category A: A ≥ 75% degradation)	A (Category A: A ≥ 75% degradation)	A (Category A: A ≥ 75% degradation)	≥ 7.00
CN1CCC[C@@H]1c1cc2cnc(NC(=O)c3ccc(OCC#Cc4cccc5c4CN(C4CCC(=O)NC4=O)C5=O)nc3)cc2[nH]1 (stereo partly drawn) [Example 2, 6-((3-(2-(2,6-dioxopiperidin-3-yl)-1-oxoisoindolin-4-yl)prop-2-yn-1-yl)oxy)-N-(2-((R)-1-methylpyrrolidin-2-yl)-1H-pyrrolo[3,2-c]pyridin-6-yl)nicotinamide]	A (Category A: A ≥ 75% degradation)	A (Category A: A ≥ 75% degradation)	A (Category A: A ≥ 75% degradation)	≥ 7.00
CN1CCC[C@@H]1c1cc2cnc(NC(=O)c3ccc(N4CCN(CCC5CCN(c6cccc7c6CN(C6CCC(=O)NC6=O)C7=O)CC5)CC4)nc3)cc2[nH]1 (stereo partly drawn) [Example 193, 6-(4-(2-(1-(2-(2,6-dioxopiperidin-3-yl)-1-oxoisoindolin-4-yl)piperidin-4-yl)ethyl)piperazin-1-yl)-N-(2-((R)-1-methylpyrrolidin-2-yl)-1H-pyrrolo[3,2-c]pyridin-6-yl)nicotinamide]	A (Category A: A ≥ 75% degradation)	A (Category A: A ≥ 75% degradation)	B (Category B: 50% ≤ B < 75% degradation)	≥ 7.00
CN1CCC[C@@H]1c1cc2cnc(NC(=O)c3ccc(N4CCN(CC#Cc5cccc6c5CN(C5CCC(=O)NC5=O)C6=O)CC4)cc3F)cc2[nH]1 (stereo partly drawn) [Example 155, 4-(4-(3-(2-(2,6-dioxopiperidin-3-yl)-1-oxoisoindolin-4-yl)prop-2-yn-1-yl)piperazin-1-yl)-2-fluoro-N-(2-((R)-1-methylpyrrolidin-2-yl)-1H-pyrrolo[3,2-c]pyridin-6-yl)benzamide]	A (Category A: A ≥ 75% degradation)	A (Category A: A ≥ 75% degradation)	B (Category B: 50% ≤ B < 75% degradation)	≥ 7.00
CN1CCC[C@@H]1c1cc2cnc(NC(=O)c3cnc(N4CCN(CC#Cc5cccc6c5CN(C5CCC(=O)NC5=O)C6=O)CC4)nc3)cc2[nH]1 (stereo partly drawn) [Example 89, 2-(4-(3-(2-(2,6-dioxopiperidin-3-yl)-1-oxoisoindolin-4-yl)prop-2-yn-1-yl)piperazin-1-yl)-N-(2-((R)-1-methylpyrrolidin-2-yl)-1H-pyrrolo[3,2-c]pyridin-6-yl)pyrimidine-5-carboxamide]	A (Category A: A ≥ 75% degradation)	A (Category A: A ≥ 75% degradation)	C (Category C: 25% ≤ C < 50% degradation)	≥ 7.00
CN1CCC[C@@H]1c1[nH]c2cc(NC(=O)c3ccc(CCCCC#Cc4cccc5c4CN(C4CCC(=O)NC4=O)C5=O)cc3F)ncc2c1Cl (stereo partly drawn) [Example 113, N-(3-chloro-2-((R)-1-methylpyrrolidin-2-yl)-1H-pyrrolo[3,2-c]pyridin-6-yl)-4-(6-(2-(2,6-dioxopiperidin-3-yl)-1-oxoisoindolin-4-yl)hex-5-yn-1-yl)-2-fluorobenzamide]	A (Category A: A ≥ 75% degradation)	A (Category A: A ≥ 75% degradation)	A (Category A: A ≥ 75% degradation)	≥ 7.00
CN1CCC[C@@H]1c1cc2cnc(NC(=O)c3ccc(CCCC4CCN(c5cccc6c5CN([C@@H]5CCC(=O)NC5=O)C6=O)CC4)cc3F)cc2[nH]1 (relative stereo) [Example 176, 4-(3-(1-(2-((rel-R)-2,6-dioxopiperidin-3-yl)-1-oxoisoindolin-4-yl)piperidin-4-yl)propyl)-2-fluoro-N-(2-((R)-1-methylpyrrolidin-2-yl)-1H-pyrrolo[3,2-c]pyridin-6-yl)benzamide]	A (Category A: A ≥ 75% degradation)	A (Category A: A ≥ 75% degradation)	A (Category A: A ≥ 75% degradation)	≥ 7.00
COc1cc(N2CCN(CC3CCN(c4cccc5c4CN(C4CCC(=O)NC4=O)C5=O)CC3)CC2)cc(F)c1C(=O)Nc1cc2[nH]c([C@H]3CCCN3C)cc2cn1 (stereo partly drawn) [Example 120, 4-(4-((1-(2-(2,6-dioxopiperidin-3-yl)-1-oxoisoindolin-4-yl)piperidin-4-yl)methyl)piperazin-1-yl)-2-fluoro-6-methoxy-N-(2-((R)-1-methylpyrrolidin-2-yl)-1H-pyrrolo[3,2-c]pyridin-6-yl)benzamide]	B (Category B: 50% ≤ B < 75% degradation)	A (Category A: A ≥ 75% degradation)	C (Category C: 25% ≤ C < 50% degradation)	≥ 7.00
Cc1cc(C2CCN(c3ccc(C(=O)Nc4cc5[nH]c([C@H]6CCCN6C)cc5cn4)cn3)CC2)ccc1-c1cccc2c1CN(C1CCC(=O)NC1=O)C2=O (stereo partly drawn) [Example 99, 6-(4-(4-(2-(2,6-dioxopiperidin-3-yl)-1-oxoisoindolin-4-yl)-3-methylphenyl)piperidin-1-yl)-N-(2-((R)-1-methylpyrrolidin-2-yl)-1H-pyrrolo[3,2-c]pyridin-6-yl)nicotinamide]	B (Category B: 50% ≤ B < 75% degradation)	A (Category A: A ≥ 75% degradation)	A (Category A: A ≥ 75% degradation)	≥ 7.00
CN1CCC[C@@H]1c1cc2cnc(NC(=O)c3ccc(OCCC4CCN(c5cccc6c5CN(C5CCC(=O)NC5=O)C6=O)CC4)c(F)c3)cc2[nH]1 (stereo partly drawn) [Example 206, 4-(2-(1-(2-(2,6-dioxopiperidin-3-yl)-1-oxoisoindolin-4-yl)piperidin-4-yl)ethoxy)-3-fluoro-N-(2-((R)-1-methylpyrrolidin-2-yl)-1H-pyrrolo[3,2-c]pyridin-6-yl)benzamide]	A (Category A: A ≥ 75% degradation)	A (Category A: A ≥ 75% degradation)	A (Category A: A ≥ 75% degradation)	≥ 7.00
CN1CCC[C@@H]1c1cc2cnc(NC(=O)c3ccc(N4CCC(OC=C=Cc5cccc6c5CN(C5CCC(=O)NC5=O)C6=O)CC4)nc3)cc2[nH]1 (stereo partly drawn) [Example 195, 6-(4-((3-(2-(2,6-dioxopiperidin-3-yl)-1-oxoisoindolin-4-yl)propa-1,2-dien-1-yl)oxy)piperidin-1-yl)-N-(2-((R)-1-methylpyrrolidin-2-yl)-1H-pyrrolo[3,2-c]pyridin-6-yl)nicotinamide]	A (Category A: A ≥ 75% degradation)	B (Category B: 50% ≤ B < 75% degradation)	A (Category A: A ≥ 75% degradation)	≥ 7.00
